Results taken from PMC6025622, “A Novel Atypical PKC-Iota Inhibitor, Echinochrome A, Enhances Cardiomyocyte Differentiation from Mouse Embryonic Stem Cells” (Marine Drugs, 2018).

Target: T1, atypical protein kinase C-iota (PKCι) (Homo sapiens, UniProt P41743)
T1 construct: gene PRKCI; full-length protein
T1 sequence (P41743 2-596): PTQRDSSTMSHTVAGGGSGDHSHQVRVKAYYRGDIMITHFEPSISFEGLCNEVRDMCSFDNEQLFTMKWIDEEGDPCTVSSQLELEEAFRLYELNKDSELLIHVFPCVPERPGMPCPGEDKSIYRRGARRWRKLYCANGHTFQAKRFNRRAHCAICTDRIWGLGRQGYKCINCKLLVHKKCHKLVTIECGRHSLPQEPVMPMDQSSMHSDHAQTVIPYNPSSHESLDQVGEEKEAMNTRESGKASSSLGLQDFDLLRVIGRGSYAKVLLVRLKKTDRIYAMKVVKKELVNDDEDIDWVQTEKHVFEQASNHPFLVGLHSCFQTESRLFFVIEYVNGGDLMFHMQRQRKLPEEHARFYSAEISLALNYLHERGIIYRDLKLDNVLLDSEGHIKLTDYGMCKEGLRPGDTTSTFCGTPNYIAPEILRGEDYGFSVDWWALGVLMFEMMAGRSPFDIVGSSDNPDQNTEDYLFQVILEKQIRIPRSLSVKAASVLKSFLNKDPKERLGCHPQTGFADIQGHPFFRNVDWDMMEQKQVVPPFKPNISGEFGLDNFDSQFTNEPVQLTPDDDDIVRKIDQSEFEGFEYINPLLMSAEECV
Experiment: surface plasmon resonance, PKCι immobilized by amine coupling; also cell-free kinase assay IC50 […]
Type: binding

**Q.** Which Kd does the source give for `CCc1c(O)c(O)c2c(c1O)C(=O)C(O)=C(O)C2=O` [Ech A, 6-ethyl-2,3,5,7,8-pentahydroxy-1,4-naphthoquinone] here?
**A.** 6.3 nM
